Assay results: patent US20220332836A1, “A METHOD FOR PREVENTING HUMAN VIRUS ASSOCIATED DISORDERS IN PATIENTS” (NOVARTIS AG, priority 2019, published 2022)

Key:
[1] = system: EBV-seropositive EBV-B cell/T cell co-cultures; experiment: EBV-B cell/T cell co-culture, EBV-seropositive donors
[2] = system: EBV-seronegative EBV-B cell/T cell co-cultures; experiment: EBV-B cell/T cell co-culture, EBV-seronegative donors; assay type: cell-based, human
[3] = system: PBMC incubated with EBV supernatant; experiment: EBV regression assay with PBMC; assay type: cell-based, human
Protocol: Buffy coats from six healthy volunteers (18-001 to 18-006) were received from Blutspendezentrum Bern. Peripheral blood mononuclear cells (PBMC) were isolated using LeucoSep tubes following manufacturer's instructions, counted with TC20 and adjusted in cell culture medium (Medium, buffers and reagents). All conditions (see Table 3-2) were run in five replicates in 96-well U-bottom plates and contained 2×10^5 cells/well. PBMC were incubated for 10-15 minutes at 37° C. before adding cell culture medium containing EBV-supernatant and transferrin (see Medium, buffers and reagents). […] Cell pellets were stained and analyzed by flow cytometry (FACS staining procedure).
In FIG. 1, the gating strategy is shown.

human CD40 = target: T1, human CD40 (human, UniProt P25942 21-193, limits assumed); experiment: method not stated
T1 construct: also called tumor necrosis factor receptor superfamily member 5
T1 sequence (P25942 21-193 limits assumed): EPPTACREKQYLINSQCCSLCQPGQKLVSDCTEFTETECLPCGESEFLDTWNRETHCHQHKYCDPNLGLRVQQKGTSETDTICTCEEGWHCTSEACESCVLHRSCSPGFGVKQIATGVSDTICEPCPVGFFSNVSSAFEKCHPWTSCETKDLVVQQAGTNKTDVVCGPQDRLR

[4] = system: NK cell-depleted PBMC cultures; experiment: EBV regression assay, complete or NK cell-depleted PBMC; assay type: cell-based, human; conditions: 14 days
Excerpt: (§1) FIG. 16 provides CD3^+ T cell counts from the NK cell-depleted PBMC regression assay after 14 days of culture measured by flow cytometry. Antibodies (in μg/mL) and CsA (in μM) were given in combination with EBV supernatants (except the negative control=medium w/o EBV). Dotted horizontal line was set to the condition ‘medium+EBV’. Data are shown as mean+SEM (n=4).
as §1, with “17” for “16”, “CD19^+ B cell counts from the PBMC regression assay after 14 days of culture measured by flow cytometry. Antibodies (in μg/mL) and CsA (in μM) were given in combination with EBV supernatants (except the negative control=medium w/o EBV). Dotted horizontal line was set to the condition ‘medium+EBV’. Data are shown as mean+SEM (n=4); and CD19^+ B” for “CD3^+ T”
All conditions except ‘medium w/o EBV’ were incubated with EBV supernatant and respective compound or antibodies. […] Looking at the CD19+ B cell proliferation (FIG. 3), there was an obvious increase in CD19+ B cell counts when PBMC were incubated with EBV supernatant compared to PBMC cultured with medium only (medium w/o EBV). […]

[5] = 10-200 μg/mL, priming, recall, priming and recall, 11 days
[6] = 14 days, CsA 0.1, 1 μM, Belatacept 10, 50 μg/mL, CFZ533, hIgG1 10-200 μg/mL, vs medium+EBV

## Belatacept: CTLA4-Ig fusion protein; blocks CD80/CD86 and thereby inhibits T cell costimulation
[1]; [5]
  CD3+ T cell proliferation: reduced
  CD4+ T cell proliferation: reduced
[1]; 100 and 200 μg/mL
  CD3+ T cell proliferation: only an reducing effect on the T cell proliferation at the ‘priming and recall’ phase
[1]; 100 and 200 μg/mL, priming and recall phase
  CD4+ T cell proliferation: robust reducing effect
[1]; all three conditions
  CD3+ T cell proliferation, 10 and 50 μg/mL versus 100 and 200 μg/mL: slightly stronger but not significant suppression pattern
  CD4+ T cell proliferation, 10 and 50 μg/mL versus 100 and 200 μg/mL: slightly stronger but not significant suppression pattern
[1]; co-culture system, EBV-B cells sero-positive and sero-negative
  EBV-mediated T cell proliferation and IFNγ secretion in presence of EBV-B cells: reduced
[2]; 10, 50, 100 and 200 μg/mL
  CD4+ T cell proliferation, differences between the four doses: no evident differences
[2]; 10-200 μg/mL, all three conditions
  CD4+ T cell proliferation: reduced
[2]; [5]
  CD3+ T cell proliferation: reduced
[2]; 10 and 50 μg/mL, recall only and priming and recall
  CD8+ T cell proliferation: only a reducing effect
[2]; 100 and 200 μg/mL, priming and recall condition
  CD3+ T cell proliferation: only a reducing effect
[2]; 100 and 200 μg/mL, priming or recall only condition
  CD3+ T cell proliferation: only minor
[2]; 100 and 200 μg/mL, priming phase only
  CD8+ T cell proliferation: increased
[2]; all three conditions
  CD3+ T cell proliferation, 10 and 50 μg/mL versus 100 and 200 μg/mL: slightly stronger but not significant suppression pattern
[3]; [6]
  CD3+ T cell counts: to a lesser degree than with CsA
  CD19+ B cell counts: increase
[3]; EBV regression assay
  T cell activity (resulting in over-growth of in vitro immortalized cells): reduced

B1: mAb1 (antibody, human IgG1, kappa, N297A, V domains shown)
VH: QVQLVESGGGVVQPGRSLRLSCAASGFTFSSYGMHWVRQAPGKGLEWVAVISYEESNRYHADSVKGRFTISRDNSKITLYLQMNSLRTEDTAVYYCARDGGIAAPGPDYWGQGTLVTVSS
VL: DIVMTQSPLSLTVTPGEPASISCRSSQSLLYSNGYNYLDWYLQKPGQSPQVLISLGSNRASGVPDRFSGSGSGTDFTLKISRVEAEDVGVYYCMQARQTPFTFGPGTKVDIRR
notes: also called CFZ533; Iscalimab
Human CD40
  Kd: 0.3 nM

B2: HCD122: a depleting CD40 mAb as positive control (antibody, chains of the INN, looked up, V domains shown)
VH: B1 VH
VL: DIVMTQSPLSLTVTPGEPASISCRSSQSLLYSNGYNYLDWYLQKPGQSPQVLISLGSNRASGVPDRFSGSGSGTDFTLKISRVEAEDVGVYYCMQARQTPFTFGPGTKVDIR
[4]
  CD19+ B cell counts: did deplete B cells
